Source: the supplement of paper PMC10331698
± gives the standard deviation of the averaged measurements.

Legend:
Experiment in all cases: level (log10 ratio to DMSO vehicle control); higher = higher biomarker level / cell amount than vehicle control
Tetrafluorosuccinic acid = compound: O=C(O)C(F)(F)C(F)(F)C(=O)O [Tetrafluorosuccinic acid]; settings: in DMSO
Procedure: (§1)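 BioMAP Diversity Plus panel of 12 human primary cell co-culture systems (3C, 4H, LPS, SAg, BT, BF4T, BE3C, CASM3C, HDF3CGF, KF3CT, MyoF, Mphg). Compounds were added 1 h before stimulation and left for 24 h (MyoF 48 h; BT 72 h for soluble read-outs or 6 d for IgG). Biomarkers were read by ELISA, cytotoxicity by SRB, PBMC viability and proliferation by Alamar Blue. Each well value was divided by the mean of 8 DMSO control wells on the same plate and log10 transformed; duplicate blinded samples were tested at 4 concentrations.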

Methotrexate = compound: CN(Cc1cnc2nc(N)nc(N)c2n1)c1ccc(C(=O)N[C@@H](CCC(=O)O)C(=O)O)cc1 [Methotrexate]; settings: in DMSO
Procedure: as §1

[1] = compound: FC(F)(F)COC(OCC(F)(F)F)OCC(F)(F)F [tris(Trifluoroethoxy)methane]; settings: in DMSO
Procedure: as §1

[2] = compound: OCC(F)(F)C(F)(F)C(F)(F)C(F)(F)C(F)(F)C(F)(F)C(F)(F)C(F)(F)C(F)(F)C(F)(F)C(F)(F)F [11:1 Fluorotelomer alcohol]; settings: in DMSO
Procedure: as §1

[3] = compound: OCCCC(F)(F)C(F)(F)C(F)(F)C(F)(F)C(F)(F)C(F)(F)C(F)(F)C(F)(F)F [3-(Perfluorooctyl)propanol]; settings: 6700 nM; in DMSO
Procedure: as §1

[4] = compound: FC(F)(F)C(F)(F)C(F)(F)C(F)(F)CCI [1H,1H,2H,2H-Perfluorohexyl iodide]; settings: in DMSO
Procedure: as §1

[5] = compound: OCC(F)(F)C(F)(F)C(F)(F)C(F)(F)C(F)(F)C(F)(F)F [6:1 Fluorotelomer alcohol]; settings: in DMSO
Procedure: as §1

Row | Test System | level (log10) (Tetrafluorosuccinic acid; 6700 nM) | level (log10) (Tetrafluorosuccinic acid; 20000 nM) | level (log10) (Tetrafluorosuccinic acid; 60000 nM) | level (log10) (Methotrexate; 1500 nM) | level (log10) (Methotrexate; 4400 nM) | level (log10) (Methotrexate; 13000 nM) | level (log10) (Methotrexate; 40000 nM) | level (log10) ([1]; 6700 nM) | level (log10) ([1]; 20000 nM) | level (log10) ([1]; 60000 nM) | level (log10) ([2]; 1100 nM) | level (log10) ([2]; 3300 nM) | level (log10) ([2]; 10000 nM) | level (log10) [3] | level (log10) ([4]; 6700 nM) | level (log10) ([4]; 20000 nM) | level (log10) ([4]; 60000 nM) | level (log10) ([5]; 6700 nM) | level (log10) ([5]; 20000 nM) | level (log10) ([5]; 60000 nM)
1 | LPS:CCL2/MCP-1 | -0.02 ± 0.0085 | -0.027 ± 0.014 | -0.0095 ± 0.043 | -0.0335 ± 0.074 | -0.03 ± 0.055 | -0.0295 ± 0.1 | -0.0565 ± 0.064 | 0.0085 ± 0.04 | 0.021 ± 0.042 | 0.036 ± 0.034 | -0.001 ± 0.0028 | -0.011 ± 0.011 | -0.009 ± 0.035 | -0.0925 ± 0.13 | -0.016 ± 0.0014 | 0.0055 ± 0.0078 | -0.013 ± 0.024 | -0.0015 ± 0.029 | -0.0045 ± 0.012 | 0.0045 ± 0.029
2 | BF4T:CXCL8/IL-8 | 0.0235 ± 0.0064 | 0.016 ± 0.038 | 0.029 ± 0.023 | 0.035 ± 0.027 | 0.027 ± 0.071 | 0.041 ± 0.057 | 0.0365 ± 0.12 | 0 ± 0.037 | 0.007 ± 0.021 | 0.005 ± 0.024 | 0.001 ± 0.0057 | 0.0145 ± 0.037 | 0.028 ± 0.042 | 0.006 ± 0.023 | 0.0135 ± 0.025 | 0.0195 ± 0.00071 | 0.0355 ± 0.03 | 0.008 ± 0.057 | -0.0085 ± 0.039 | 0.013 ± 0.016
3 | SAg:CD62E/E-Selectin | -0.015 | -0.003 ± 0.016 | 0.0035 ± 0.0035 | 0.007 ± 0.011 | -0.0015 ± 0.032 | 0.019 ± 0.016 | -0.0075 ± 0.018 | 0.004 ± 0.034 | -0.022 ± 0.025 | -0.0045 ± 0.026 | 0.045 ± 0.0057 | 0.0325 ± 0.018 | 0.0355 ± 0.035 | -0.014 ± 0.0099 | -0.0095 ± 0.005 | -0.014 ± 0.014 | -0.008 ± 0.018 | 0.0085 ± 0.026 | -0.001 ± 0.0085 | 0 ± 0.025
4 | BT:sIL-6 | -0.0225 ± 0.0064 | -0.018 ± 0.025 | -0.033 ± 0.011 | 0.0125 ± 0.013 | -0.034 ± 0.1 | -0.0095 ± 0.059 | -0.2 ± 0.033 | -0.006 ± 0.037 | 0.0005 ± 0.0092 | -0.0105 ± 0.11 | 0.209 ± 0.0092 | 0.116 ± 0.034 | 0.083 ± 0.085 | 0.0875 ± 0.052 | 0.0605 ± 0.036 | 0.0075 ± 0.0064 | -0.0525 ± 0.00071 | -0.001 ± 0.025 | -0.034 ± 0.073 | -0.296 ± 0.036
5 | SAg:CXCL8/IL-8 | -0.0345 ± 0.039 | -0.044 ± 0.021 | -0.006 ± 0.064 | 0.023 ± 0.037 | -0.0215 ± 0.022 | -0.004 ± 0.02 | 0.0195 ± 0.052 | 0.002 ± 0.023 | 0.0085 ± 0.0021 | 0.0135 ± 0.00071 | 0.0365 ± 0.042 | -0.0005 ± 0.0035 | -0.121 ± 0.28 | -0.0165 ± 0.028 | 0.012 ± 0.0042 | -0.0035 ± 0.0092 | -0.006 ± 0.058 | -0.035 ± 0.048 | -0.0425 ± 0.025 | -0.013 ± 0.069
6 | LPS:CD141/Thrombomodulin | 0.019 ± 0.1 | 0.043 ± 0.057 | 0.04 ± 0.047 | 0.016 ± 0.03 | -0.0155 ± 0.036 | 0.0085 ± 0.015 | -0.0025 ± 0.023 | -0.042 ± 0.042 | -0.0385 ± 0.0078 | -0.0505 ± 0.0035 | -0.0285 ± 0.015 | -0.0185 ± 0.012 | -0.0035 ± 0.013 | 0.092 ± 0.031 | 0.0185 ± 0.023 | 0.011 ± 0.038 | -0.005 ± 0.027 | -0.0225 ± 0.03 | -0.021 ± 0.051 | 0.002 ± 0.0057
7 | BE3C:CXCL8/IL-8 | 0.0325 ± 0.052 | 0.0315 ± 0.071 | 0.0525 ± 0.0064 | 0.0795 ± 0.069 | 0.035 ± 0.089 | 0.053 ± 0.057 | 0.048 ± 0.11 | 0.018 ± 0.051 | 0.0155 ± 0.04 | 0.0505 ± 0.013 | -0.086 ± 0.011 | -0.158 ± 0.055 | -0.0975 ± 0.042 | -0.046 ± 0.011 | 0.0225 ± 0.0078 | 0.016 ± 0.025 | 0.0525 ± 0.057 | 0.004 ± 0.017 | -0.0125 ± 0.042 | -0.0075 ± 0.0064
8 | BE3C:HLA-DR | -0.027 ± 0.0028 | -0.0045 ± 0.0035 | 0.004 ± 0.0014 | -0.0105 ± 0.00071 | -0.0235 ± 0.0064 | 0.013 ± 0.011 | -0.0145 ± 0.022 | -0.0015 ± 0.011 | 0.0155 ± 0.0064 | 0.006 ± 0.021 | -0.0755 ± 0.037 | -0.141 ± 0.015 | -0.163 ± 0.0042 | -0.01 ± 0.023 | -0.0105 ± 0.0064 | 0 ± 0.0014 | -0.005 ± 0.0042 | 0.009 ± 0.025 | -0.0085 ± 0.026 | -0.077 ± 0.13
9 | LPS:CD69 | -0.0265 ± 0.0035 | -0.0405 ± 0.0092 | -0.029 ± 0.025 | -0.0175 ± 0.015 | -0.035 ± 0.033 | -0.0385 ± 0.044 | -0.0175 ± 0.0092 | -0.0085 ± 0.015 | 0.012 ± 0.017 | 0.0295 ± 0.018 | 0.006 ± 0.021 | 0.004 | -0.003 ± 0.031 | -0.011 ± 0.016 | 0 ± 0.013 | -0.008 ± 0.0071 | 0.0085 ± 0.011 | -0.017 ± 0.0042 | -0.0135 ± 0.0064 | -0.0085 ± 0.005
10 | BT:sTNF-alpha | -0.0875 ± 0.14 | -0.076 ± 0.13 | -0.0795 ± 0.054 | -0.067 ± 0.072 | -0.137 ± 0.11 | -0.0565 ± 0.023 | -0.0905 ± 0.1 | 0.017 ± 0.11 | -0.0365 ± 0.033 | 0.0085 ± 0.043 | -0.057 ± 0.031 | -0.127 ± 0.0064 | -0.0825 ± 0.079 | -0.0805 ± 0.029 | -0.016 ± 0.085 | -0.003 ± 0.0028 | -0.036 ± 0.095 | 0.0265 ± 0.084 | -0.0265 ± 0.033 | -0.33 ± 0.0042
11 | BE3C:CD54/ICAM-1 | 0.0015 ± 0.025 | 0.0065 ± 0.00071 | 0.0115 ± 0.00071 | 0.021 ± 0.014 | -0.002 ± 0.013 | 0.013 ± 0.031 | 0.0065 ± 0.035 | 0.016 ± 0.027 | 0.006 ± 0.0099 | 0.0075 ± 0.0092 | -0.0245 ± 0.00071 | -0.054 ± 0.0099 | -0.025 ± 0.0028 | 0.023 ± 0.0071 | 0.0035 ± 0.0035 | 0.004 ± 0.013 | 0.0105 ± 0.011 | 0.0055 ± 0.019 | -0.013 ± 0.016 | 0.0065 ± 0.0021
12 | LPS:CD142/Tissue Factor | -0.001 ± 0.047 | -0.0155 ± 0.079 | 0.014 ± 0.037 | -0.0105 ± 0.018 | -0.0155 ± 0.039 | 0.022 ± 0.076 | -0.0035 ± 0.0021 | -0.013 ± 0.011 | -0.02 ± 0.027 | -0.0085 ± 0.06 | 0.056 ± 0.0028 | 0.084 ± 0.03 | 0.0995 ± 0.00071 | -0.126 ± 0.066 | 0.0165 ± 0.0035 | 0.0275 ± 0.018 | 0.055 ± 0.051 | -0.0035 ± 0.03 | 0.0215 ± 0.011 | 0.0155 ± 0.016
13 | 4H:CCL26/Eotaxin-3 | 0.0025 ± 0.049 | -0.037 ± 0.064 | 0.0315 ± 0.018 | -0.018 ± 0.0085 | -0.008 ± 0.011 | 0.014 ± 0.021 | -0.002 ± 0.014 | 0.018 ± 0.047 | 0.0235 ± 0.043 | 0.0415 ± 0.0078 | 0.0025 ± 0.0035 | -0.0055 ± 0.0092 | -0.0085 ± 0.0078 | -0.009 ± 0.0042 | -0.0145 ± 0.032 | -0.06 ± 0.013 | -0.1 ± 0.0042 | 0.01 ± 0.0085 | 0.012 ± 0.018 | -0.003 ± 0.025
14 | BE3C:EGFR | -0.008 ± 0.0042 | -0.0055 ± 0.019 | 0.003 ± 0.0042 | 0.023 ± 0.028 | 0.002 ± 0.013 | 0.0085 ± 0.0092 | 0.0155 ± 0.037 | 0.022 ± 0.041 | 0.0095 ± 0.033 | 0.005 ± 0.021 | -0.022 ± 0.011 | -0.003 ± 0.018 | -0.019 ± 0.0099 | -0.018 ± 0.0071 | 0.011 ± 0.047 | -0.0005 ± 0.046 | -0.0275 ± 0.063 | 0.0115 ± 0.0064 | 0.0035 ± 0.011 | -0.0585 ± 0.081
